Tests used:
[1] = test system: mouse fibrosarcoma (R3) cells; assay: Experimental metastasis of R3 cells treated ex vivo, lung nodules in C3H mice (4.1); settings: for Formation of lung colonies / nodules: R3 cells treated with 0.2 μM + Lipofectin for 4 hr before i.v. injection into C3H mice
Description: • 4.1 Experimental metastasis of mouse fibrosarcoma (R3) cells treated with different antisense oligonucleotides in a syngenetic model was estimated as follows. Aliquots of R3 cell suspension were seeded into 100 mm tissue culture dishes at a density of 2×10^6 and incubated overnight at 37° C. in α-MEM medium supplemented with 10% FBS. Cells were washed once in 10 ml of PBS and treated with 0.2 μM of SEQ ID NO: 1 in the presence of cationic lipid (Lipofectin reagent, final concentration, 10 μg/ml, Gibco BRL) for 4 hr. Cells were treated with either saline alone (C) or lipofectin alone (RE) as controls. Oligonucleotide was removed by washing the cells once with PBS and the cells were trypsinized. Cells were then collected by centrifugation, and approximately 1×10^5 cells suspended in 0.2 ml of PBS were injected into the tail veins of 10 week-old C3H female mice. Estimates of the number of lung tumours were made 20 days later, after excised lungs from individual mice were stained with picric acid dye solution (75% picric acid, 20% formaldehyde, 5% glacial acetic acid). Bars represent mean number of tumour nodules in lungs obtained from 4 to 5 animals per experimental group. […] Aliquots of C8161 cell suspension were seeded into 100 mm tissue culture dishes at a density of 2×10^6 and incubated overnight at 37° C. in α-MEM medium supplemented with 10% FBS. Cells were washed once in 10 ml of PBS and treated with 0.2 μM of SEQ ID NO: 1 in the presence of cationic lipid (Lipofectin reagent, final concentration, 10 μg/ml, Gibco BRL) for 4 hr. Cells were treated with lipofectin alone (CONTROL) as a control. SEQ ID NO:1 was removed by washing the cells once with PBS and the cells were trypsinized. Cells were then collected by centrifugation, and approximately 1×10^5 cells suspended in 0.2 ml of PBS were injected into the tail veins of 6-8 week-old CD-1 athymic female nude mice. Estimates of the number of lung tumours were made 4 weeks later, after excised lungs from individual mice were stained with picric acid dye solution (75% picric acid, 20% formaldehyde, 5% glacial acetic acid). […]

[2] = test system: Caki-1 human kidney cancer cells; assay: Caki-1 kidney tumour growth in CD-1 nude mice (3.8); assay type: in vivo, human cells in mice
Description: Treatments lasted for 14 days thereafter. Antitumour activities were estimated by the inhibition of tumour volume, which was measured with a caliper on four different occasions over the treatment period. Each point represents mean tumour volume calculated from 5 animals per experimental group. […] Control animals (control) received saline alone for the same period. At the end of the treatments, the animals were sacrificed, tumours were excised and their weights were measured. Each bar represents mean tumour weight calculated from 6 animals per experimental group. […] Treatments lasted for 24 days thereafter. Antitumour activities were estimated by the inhibition of tumour volume, which was measured with a caliper at two-day intervals over the treatment period. Each point represents mean tumour volume calculated from 4 animals per experimental group. […] Treatments lasted for 24 days thereafter. Antitumour activities were estimated by the inhibition of tumour volume, which was measured with a caliper at two-day intervals over the treatment period. Each point represents mean tumour volume calculated from 4 animals per experimental group. […] Each point represents mean tumour volume calculated from 5 animals per experimental group. […] Antitumour activities were estimated by the inhibition of tumour volume, which was measured with a caliper on four different occasions over 16-day period. […]

[3] = test system: human whole blood; assay: Intravenous compatibility assay (haemolysis); assay type: cell-based; settings: static or dynamic conditions

## 5′-GGCTAAATCGCTCCACCAAG-3′ (all phosphorothioate, sugars by position and methylation of C not given here) [SEQ ID NO: 1, fully phosphorothioated antisense oligonucleotide that hybridizes to the coding region of R2 mRNA]
[1]; Mouse Fibrosarcoma (ex vivo)
  Decrease in the number of tumour metastases to lungs: Decrease by approximately 65% in the number
[1]
  Formation of lung colonies / nodules: significantly reduced the formation of lung colonies
[1]; listed as SEQ ID NO:1
  Formation of lung colonies / nodules: significantly reduces the extent of lung nodule formation
[2]; Caki-1, CD-1 nude mice, 10 mg/kg i.v. every other day to day 36
  Inhibitory effect on tumour growth (tumour volume, FIG. 21A): powerful inhibitory effects on the growth of human renal carcinoma cells, resulting in total regression of the tumours in three mice
[2]; Human Renal Carcinoma (first entry of Table 5)
  Inhibition of tumour size: Approximately 90% inhibition of tumour size
[3]
  Haemolytic activity (cell lysis and haemoglobin release): did not cause haemolysis under static or dynamic conditions

Source: patent US7968526B2, “Antisense oligonucleotides directed to ribonucleotide reductase R2 and uses thereof in the treatment of cancer” (Lorus Therapeutics Inc., priority 2003, dated 2011)
